In the supplement of paper PMC10307832:

Experiments:
Assay in all cases: relative viability (nuclei count vs DMSO), 5 days (fraction); higher = more cells survive
AZD5582 + Linsitinib = compound: C[C@@H](C(=O)N[C@@H](C1CCCCC1)C(=O)N2CCC[C@H]2C(=O)N[C@@H]3[C@@H](CC4=CC=CC=C34)OCC#CC#CCO[C@@H]5CC6=CC=CC=C6[C@@H]5NC(=O)[C@@H]7CCCN7C(=O)[C@H](C8CCCCC8)NC(=O)[C@H](C)NC)NC [AZD5582] + C[C@]1(O)C[C@@H](c2nc(-c3ccc4ccc(-c5ccccc5)nc4c3)c3c(N)nccn32)C1 [Linsitinib] (partner 1 µM)
Outline: (§1)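 Dosing by pin tool came one day after lung cancer cell lines were seeded in 1536-well plates, using either one drug or a fixed anchor-drug dose plus five library-drug doses (not always all listed) in √10 steps. After 5 days, nuclei were counted on 4× images. Relative viability is treated-well nuclei count divided by vehicle-well nuclei count, and values are medians of duplicate plates.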

[1] = compound: Cn1nnc2c(C(N)=O)ncn2c1=O [Temozolomide] + CC1(C)CCC(c2ccc(Cl)cc2)=C(CN2CCN(c3ccc(C(=O)NS(=O)(=O)c4ccc(N[C@H](CCN5CCOCC5)CSc5ccccc5)c(S(=O)(=O)C(F)(F)F)c4)cc3)CC2)C1 [Navitoclax] (partner 0.5 µM)
Outline: as §1

[2] = compound: Cn1nnc2c(C(N)=O)ncn2c1=O [Temozolomide] + CS(=O)(=O)N1CCN(Cc2cc3nc(-c4cccc5[nH]ncc45)nc(N4CCOCC4)c3s2)CC1 [Pictilisib] (partner 1 µM)
Outline: as §1

Temozolomide + AZD7762 = compound: Cn1nnc2c(C(N)=O)ncn2c1=O [Temozolomide] + NC(=O)Nc1cc(-c2cccc(F)c2)sc1C(=O)N[C@H]1CCCNC1 [AZD7762] (partner 0.2 µM)
Outline: as §1

## NCI-H1703
AZD5582 + Linsitinib; first compound 0.005 µM
  relative viability: 0.666
AZD5582 + Linsitinib; first compound 0.01581 µM
  relative viability: 1.02
AZD5582 + Linsitinib; first compound 0.05 µM
  relative viability: 0.44
[1]; first compound 0.2 µM
  relative viability: 1.21
[1]; first compound 0.6325 µM
  relative viability: 1.2
[1]; first compound 2 µM
  relative viability: 1.28
[1]; first compound 6.325 µM
  relative viability: 0.947
[1]; first compound 20 µM
  relative viability: 1.37
[2]; first compound 0.2 µM
  relative viability: 0.249
[2]; first compound 0.6325 µM
  relative viability: 0.255
[2]; first compound 2 µM
  relative viability: 0.301
[2]; first compound 20 µM
  relative viability: 0.272
Temozolomide + AZD7762; first compound 0.2 µM
  relative viability: 0.137
Temozolomide + AZD7762; first compound 0.6325 µM
  relative viability: 0.1
Temozolomide + AZD7762; first compound 2 µM
  relative viability: 0.125
Temozolomide + AZD7762; first compound 6.325 µM
  relative viability: 0.147
Temozolomide + AZD7762; first compound 20 µM
  relative viability: 0.107
